Source: patent US10450316B2, “Certain protein kinase inhibitor” (Chongqing Fochon Pharmaceutical Co., Ltd., priority 2015, dated 2019)

System: BE(2)-C cell
Experiment: Cell proliferation assay (MTS) in BE(2)-C cells
Type: cell-based
Details: Homo sapiens, inhibition of BE(2)-C cell proliferation, 48 h
Protocol: MTS testing kit was purchased from Promega. The DMEM, Fetal bovine serum and Penicillin-Streptomycin were purchased from Gibco. Dimethyl sulfoxide (DMSO) was purchased from Sigma.
To investigate whether a compound is able to inhibit the activity of CDK4/6 in cells, mechanism-based assays using BE(2)-C cell (ATCC® number:CRL-2268) were developed. In the assay, inhibition of CDK4/6 was detected by the inhibition of BE(2)-C cell cells proliferation. BE(2)-C cell cells were cultured in culture flasks to 40-80% confluence in DMEM plus 10% fetal bovine serum. Cells were collected and plated onto 96-well plates at cell density of 3000 cells/well. Plates were incubated overnight at 37° C., with 5% CO2 to adhere. Compounds were added to the plates, the final compound concentrations were 10000, 3333, 1111, […], 123.5, 41.2, 13.7, 4.6 and 1.5 nM. Place plates at 37° C., with 5% CO2 for 48 h. After removing the medium, 20 μl MTS/100 μl medium mixture solution were added to each well and incubate the plates for exactly 2 hours. The reaction was terminated by adding 25 μl 10% SDS per well. Measure absorbance at 490 nm and 650 nm (reference wavelength). IC50 was calculated using GraphPad Prism 5.0.
Select compounds prepared as described above were assayed according to the biological procedures described herein. “++++” stands for IC50 value below about 10 nM. “+++” stands for IC50 value between greater than about 10 nM to about 100 nM. “++” stands for IC50 value between greater than about 100 nM to about […]. “+” stands for IC50 value greater than 1 μM.

SMILES | IC50 [nM]
Fc1cnc(Nc2ccc(CN3CCNCC3)cn2)nc1-c1cc(F)c2nc3n(c2c1)[C@H](C(F)F)CC3 [Example 10, (S)-4-(1-(difluoromethyl)-5-fluoro-2,3-dihydro-1H-benzo[d]pyrrolo[1,2-a]imidazol-7-yl)-5-fluoro-N-(5-(piperazin-1-ylmethyl)pyridin-2-yl)pyrimidin-2-amine] | > 100
Fc1cnc(Nc2ccc(CN3CCNCC3)cn2)nc1-c1cc(F)c2nc3n(c2c1)C1(CC3)CC1 [Example 13, 5-fluoro-4-(5-fluoro-2,3-dihydrospiro[benzo[d]pyrrolo[1,2-a]imidazole-1,1′-cyclopropan]-7-yl)-N-(5-(piperazin-1-ylmethyl)pyridin-2-yl)pyrimidin-2-amine] | > 100
CN1CCN(Cc2ccc(Nc3ncc(F)c(-c4cc(F)c5nc6n(c5c4)C4(CC6)CC4)n3)nc2)CC1 [Example 14, 5-fluoro-4-(5-fluoro-2,3-dihydrospiro[benzo[d]pyrrolo[1,2-a]imidazole-1,1′-cyclopropan]-7-yl)-N-(5-((4-methylpiperazin-1-yl)methyl)pyridin-2-yl)pyrimidin-2-amine] | > 100
CCN1CCN(Cc2ccc(Nc3ncc(F)c(-c4cc(F)c5nc6n(c5c4)C4(CC6)CC4)n3)nc2)CC1 [Example 15, N-(5-((4-ethylpiperazin-1-yl)methyl)pyridin-2-yl)-5-fluoro-4-(5-fluoro-2,3-dihydrospiro[benzo[d]pyrrolo[1,2-a]imidazole-1,1′-cyclopropan]-7-yl)pyrimidin-2-amine] | > 100
Fc1cnc(Nc2ccc(CN3CCNCC3)cn2)nc1-c1cc(F)c2nc3n(c2c1)[C@H](C(F)(F)F)CC3 [Example 16, (S)-5-fluoro-4-(5-fluoro-1-(trifluoromethyl)-2,3-dihydro-1H-benzo[d]pyrrolo[1,2-a]imidazol-7-yl)-N-(5-(piperazin-1-ylmethyl)pyridin-2-yl)pyrimidin-2-amine] | 10 to 100
CN1CCN(Cc2ccc(Nc3ncc(F)c(-c4cc(F)c5nc6n(c5c4)[C@H](C(F)(F)F)CC6)n3)nc2)CC1 [Example 17, (S)-5-fluoro-4-(5-fluoro-1-(trifluoromethyl)-2,3-dihydro-1H-benzo[d]pyrrolo[1,2-a]imidazol-7-yl)-N-(5-((4-methylpiperazin-1-yl)methyl)pyridin-2-yl)pyrimidin-2-amine] | 10 to 100
CCN1CCN(Cc2ccc(Nc3ncc(F)c(-c4cc(F)c5nc6n(c5c4)[C@H](C(F)(F)F)CC6)n3)nc2)CC1 [Example 18, (S)—N-(5-((4-ethylpiperazin-1-yl)methyl)pyridin-2-yl)-5-fluoro-4-(5-fluoro-1-(trifluoromethyl)-2,3-dihydro-1H-benzo[d]pyrrolo[1,2-a]imidazol-7-yl)pyrimidin-2-amine] | 10 to 100
FC[C@@H]1CCc2nc3c(F)cc(-c4nc(Nc5ccc(CN6CCN7CCC[C@@H]7C6)cn5)ncc4F)cc3n21 [Example 19, 5-fluoro-4-((S)-5-fluoro-1-(fluoromethyl)-2,3-dihydro-1H-benzo[d]pyrrolo[1,2-a]imidazol-7-yl)-N-(5-(((R)-hexahydropyrrolo[1,2-a]pyrazin-2(1H)-yl)methyl)pyridin-2-yl)pyrimidin-2-amine] | < 10
FC[C@@H]1CCc2nc3c(F)cc(-c4nc(Nc5ccc(CN6CC7(CCNCC7)C6)cn5)ncc4F)cc3n21 [Example 20, (S)-N-(5-((2,7-diazaspiro[3.5]nonan-2-yl)methyl)pyridin-2-yl)-5-fluoro-4-(5-fluoro-1-(fluoro-methyl)-2,3-dihydro-1H-benzo[d]pyrrolo[1,2-a]imidazol-7-yl)pyrimidin-2-amine] | > 1000
CN1CCC2(CC1)CN(Cc1ccc(Nc3ncc(F)c(-c4cc(F)c5nc6n(c5c4)[C@H](CF)CC6)n3)nc1)C2 [Example 21, (S)-5-fluoro-4-(5-fluoro-1-(fluoromethyl)-2,3-dihydro-1H-benzo[d]pyrrolo[1,2-a]imidazol-7-yl)-N-(5-((7-methyl-2,7-diazaspiro[3.5]nonan-2-yl)methyl)pyridin-2-yl)pyrimidin-2-amine] | > 100
CCN1CCC2(CC1)CN(Cc1ccc(Nc3ncc(F)c(-c4cc(F)c5nc6n(c5c4)[C@H](CF)CC6)n3)nc1)C2 [Example 22, (S)-N-(5-((7-ethyl-2,7-diazaspiro[3.5]nonan-2-yl)methyl)pyridin-2-yl)-5-fluoro-4-(5-fluoro-1-(fluoromethyl)-2,3-dihydro-1H-benzo[d]pyrrolo[1,2-a]imidazol-7-yl)pyrimidin-2-amine] | > 100
FC[C@@H]1CCc2nc3c(F)cc(-c4nc(Nc5ccc(CN6CC7(CNC7)C6)cn5)ncc4F)cc3n21 [Example 23, (S)-N-(5-((2,6-diazaspiro[3.3]heptan-2-yl)methyl)pyridin-2-yl)-5-fluoro-4-(5-fluoro-1-(fluoromethyl)-2,3-dihydro-1H-benzo[d]pyrrolo[1,2-a]imidazol-7-yl)pyrimidin-2-amine] | > 1000
CN1CC2(C1)CN(Cc1ccc(Nc3ncc(F)c(-c4cc(F)c5nc6n(c5c4)[C@H](CF)CC6)n3)nc1)C2 [Example 24, (S)-5-fluoro-4-(5-fluoro-1-(fluoromethyl)-2,3-dihydro-1H-benzo[d]pyrrolo[1,2-a]imidazol-7-yl)-N-(5-((6-methyl-2,6-diazaspiro[3.3]heptan-2-yl)methyl)pyridin-2-yl)pyrimidin-2-amine] | > 100
CCN1CC2(C1)CN(Cc1ccc(Nc3ncc(F)c(-c4cc(F)c5nc6n(c5c4)[C@H](CF)CC6)n3)nc1)C2 [Example 25, (S)-N-(5-((6-ethyl-2,6-diazaspiro[3.3]heptan-2-yl)methyl)pyridin-2-yl)-5-fluoro-4-(5-fluoro-1-(fluoromethyl)-2,3-dihydro-1H-benzo[d]pyrrolo[1,2-a]imidazol-7-yl)pyrimidin-2-amine] | 10 to 100
FC[C@@H]1CCc2nc3c(F)cc(-c4nc(Nc5ccc(CN6CC7CNCC7C6)cn5)ncc4F)cc3n21 (stereo partly drawn) [Example 26, 5-fluoro-4-((S)-5-fluoro-1-(fluoromethyl)-2,3-dihydro-1H-benzo[d]pyrrolo[1,2-a]imidazol-7-yl)-N-(5-((hexahydropyrrolo[3,4-c]pyrrol-2(1H)-yl)methyl)pyridin-2-yl)pyrimidin-2-amine] | > 100
CN1CC2CN(Cc3ccc(Nc4ncc(F)c(-c5cc(F)c6nc7n(c6c5)[C@H](CF)CC7)n4)nc3)CC2C1 (stereo partly drawn) [Example 27, 5-fluoro-4-((S)-5-fluoro-1-(fluoromethyl)-2,3-dihydro-1H-benzo[d]pyrrolo[1,2-a]imidazol-7-yl)-N-(5-((5-methylhexahydropyrrolo[3,4-c]pyrrol-2(1H)-yl)methyl)pyridin-2-yl)pyrimidin-2-amine] | 10 to 100
CCN1CC2CN(Cc3ccc(Nc4ncc(F)c(-c5cc(F)c6nc7n(c6c5)[C@H](CF)CC7)n4)nc3)CC2C1 (stereo partly drawn) [Example 28, N-(5-((5-ethylhexahydropyrrolo[3,4-c]pyrrol-2(1H)-yl)methyl)pyridin-2-yl)-5-fluoro-4-((S)-5-fluoro-1-(fluoromethyl)-2,3-dihydro-1H-benzo[d]pyrrolo[1,2-a]imidazol-7-yl)pyrimidin-2-amine] | 10 to 100
FC[C@@H]1CCc2nc3c(F)cc(-c4nc(Nc5ccc(CN6CCC7(CCNCC7)CC6)cn5)ncc4F)cc3n21 [Example 29, (S)-N-(5-((3,9-diazaspiro[5.5]undecan-3-yl)methyl)pyridin-2-yl)-5-fluoro-4-(5-fluoro-1-(fluoromethyl)-2,3-dihydro-1H-benzo[d]pyrrolo[1,2-a]imidazol-7-yl)pyrimidin-2-amine] | > 100
CN1CCC2(CC1)CCN(Cc1ccc(Nc3ncc(F)c(-c4cc(F)c5nc6n(c5c4)[C@H](CF)CC6)n3)nc1)CC2 [Example 30, (S)-5-fluoro-4-(5-fluoro-1-(fluoromethyl)-2,3-dihydro-1H-benzo[d]pyrrolo[1,2-a]imidazol-7-yl)-N-(5-((9-methyl-3,9-diazaspiro[5.5]undecan-3-yl)methyl)pyridin-2-yl)pyrimidin-2-amine] | > 100
CCN1CCC2(CC1)CCN(Cc1ccc(Nc3ncc(F)c(-c4cc(F)c5nc6n(c5c4)[C@H](CF)CC6)n3)nc1)CC2 [Example 31, (S)-N-(5-((9-ethyl-3,9-diazaspiro[5.5]undecan-3-yl)methyl)pyridin-2-yl)-5-fluoro-4-(5-fluoro-1-(fluoromethyl)-2,3-dihydro-1H-benzo[d]pyrrolo[1,2-a]imidazol-7-yl)pyrimidin-2-amine] | > 100
FC[C@@H]1CCc2nc3c(F)cc(-c4nc(Nc5ccc(CN6C7CCC6CNC7)cn5)ncc4F)cc3n21 [Example 32, N-(5-((3,8-diazabicyclo[3.2.1]octan-8-yl)methyl)pyridin-2-yl)-5-fluoro-4-((S)-5-fluoro-1-(fluoro-methyl)-2,3-dihydro-1H-benzo[d]pyrrolo[1,2-a]imidazol-7-yl)pyrimidin-2-amine] | > 100
CN1CC2CCC(C1)N2Cc1ccc(Nc2ncc(F)c(-c3cc(F)c4nc5n(c4c3)[C@H](CF)CC5)n2)nc1 [Example 33, 5-fluoro-4-((S)-5-fluoro-1-(fluoromethyl)-2,3-dihydro-1H-benzo[d]pyrrolo[1,2-a]imidazol-7-yl)-N-(5-((3-methyl-3,8-diazabicyclo[3.2.1]octan-8-yl)methyl)pyridin-2-yl)pyrimidin-2-amine] | 10 to 100
